Measured values published in article PMC9498296, “Inhibitory Activity of Quaternary Isoquinoline Alkaloids on Soluble Epoxide Hydrolase” (Current Issues in Molecular Biology, 2022).

What was measured:
[1] = target: T1, soluble epoxide hydrolase (sEH) (Homo sapiens, UniProt P34913); assay: sEH enzymatic assay (fluorometric, PHOME substrate); assay type: biochemical; conditions: 37 °C, pH 7.0, tested three times, read-out: Inhibition of Compounds on sEH IC50
T1 construct: purchased Cayman Chemical (Ann Arbor, MI, USA) 10011669
T1 sequence (P34913 1-555): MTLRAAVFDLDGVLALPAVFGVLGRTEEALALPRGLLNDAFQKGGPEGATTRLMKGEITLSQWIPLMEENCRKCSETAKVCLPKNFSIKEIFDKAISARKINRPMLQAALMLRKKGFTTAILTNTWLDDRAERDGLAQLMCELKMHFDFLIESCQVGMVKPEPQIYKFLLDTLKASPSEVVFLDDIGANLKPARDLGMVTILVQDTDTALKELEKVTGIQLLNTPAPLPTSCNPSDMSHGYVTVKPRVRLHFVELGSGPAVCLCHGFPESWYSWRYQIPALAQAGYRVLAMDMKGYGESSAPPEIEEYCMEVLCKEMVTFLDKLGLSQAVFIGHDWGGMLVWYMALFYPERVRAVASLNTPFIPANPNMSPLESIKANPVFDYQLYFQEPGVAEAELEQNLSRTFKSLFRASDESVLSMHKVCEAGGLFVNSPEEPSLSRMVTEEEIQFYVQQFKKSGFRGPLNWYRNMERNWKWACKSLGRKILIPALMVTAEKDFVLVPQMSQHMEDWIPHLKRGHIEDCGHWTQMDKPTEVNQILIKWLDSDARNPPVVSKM
Protocol: The sEH assay was performed as described previously, with minor modifications. To determine inhibitory activity, 130 μL of the sEH in 25 mM bis-Tris-HCl buffer (pH 7.0) containing 0.1% BSA was added to either 20 μL of inhibitor dissolved in MeOH. Next, 20 μL of PHOME was mixed to each mixture, which was then reacted at 37 °C for sEH hydrolysis. Product formation was monitored fluorometrically at 330 nm excitation and 465 nm emission for approximately 60 min.
sEH inhibition activity was calculated using sEH Inhibition rate (%) = [(ΔC − ΔI)/ΔC] × 100(1) where ΔC and ΔI are the difference of the solvent and compound intensities, respectively, after about one hour and y = y0 + (a × x/b + x)(2) where y0 is the minimum value along the y-axis, a is the difference between the maximum and minimum values, and b is the x value at 50 percent of the “a” value.

[2] = target: T1, soluble epoxide hydrolase (sEH); assay: Enzyme kinetics of sEH inhibition (Lineweaver–Burk and Dixon plots); assay type: biochemical; conditions: for Binding Mode: Lineweaver–Burk plots, PHOME substrate; for Ki: Table 1, Dixon plots, read-out: Binding Mode (ki, M): ki
Protocol: Additionally, an enzyme kinetic study was performed to identify how the three compounds bound to this enzyme. The initial velocity (v0) of inhibitor was determined as the rate of enzymatic conversion from substrate to product depending on the concentration of inhibitor at the start of the enzymatic reaction. The results were visualized using classic double-reciprocal Lineweaver–Burk plots. Figure 2B–D indicates one 1/Km and four 1/Vmax values for the three inhibitors, which inhibited the catalytic reaction of sEH with PHOME in a noncompetitive manner.

IC50 [1] [µM] | Binding Mode [2] | Ki [2] [M] | Compound
29.6 ± 0.5 | Non-competitive | 2.69e-05 | COc1cc2c(cc1OC)-c1cc3ccc(OC)c(OC)c3c[n+]1CC2 [Compound 1, palmatine]
33.4 ± 0.8 | Non-competitive | 4.68e-05 | COc1ccc2cc3[n+](cc2c1OC)CCc1cc2c(cc1-3)OCO2 [Compound 2, berberine]

Compound | IC50 [1] [µM] | Binding Mode [2] | Ki [2] [M]
COc1cc2c(cc1O)CC[n+]1cc3c(OC)c(OC)ccc3cc1-2 [Compound 3, jatrorrhizine] | 27.3 ± 0.4 | Non-competitive | 4.45e-05
